The source of these data is patent US12599582B2, “Pyrrole compounds” (ALIGOS THERAPEUTICS, INC., priority 2019, dated 2026).

The assay has as its system HBV. As to the kind of experiment: HBV-DNA Antiviral Assay Using HepG2.2.15 Cells (extracellular HBV DNA by qPCR). Type of assay: cell-based, hepatitis B virus (HBV). The following applies: Hepatitis B virus; HBV DNA inhibition, HepG2.2.15 cells, extracellular HBV DNA by qPCR; read-out: EC50. A digest of the protocol: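 HepG2.2.15 cells were treated on day 1 with 8 concentrations (4-fold dilutions, duplicate; 0.5% DMSO), with compound-containing medium refreshed on day 4, at 37 °C. On day 7, supernatant HBV DNA was measured by qPCR against a plasmid standard curve, with inhibition normalised between DMSO and ETV controls. EC50/EC90 and CC50 (CellTiter-Glo ATP) came from variable-slope fits.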
(Real-time PCR tracks product formation cycle by cycle.)
Regarding `C=CCNC(=O)C(=O)c1cn(C)c(C(=O)Nc2ccc(F)c(C#N)c2)c1F` [Compound 7, 4-[2-(allylamino)-2-oxo-acetyl]-N-(3-cyano-4-fluoro-phenyl)-3-fluoro-1-methyl-pyrrole-2-carboxamide], the EC50 (usually the concentration that produces a half-maximal response) was in the range of 100 to 1000 nM. For `Cc1c(C(=O)C(=O)NC(C)(C)c2ncc[nH]2)c(C)n(C)c1C(=O)Nc1ccc(F)c(C(F)(F)F)c1` [Compound 132, N-[4-fluoro-3-(trifluoromethyl)phenyl]-4-[2-[[1-(1H-imidazol-2-yl)-1-methyl-ethyl]amino]-2-oxo-acetyl]-1,3,5-trimethyl-pyrrole-2-carboxamide], the half-maximal effective concentration (EC50) fell in the range of 1 to 10 nM. As for `C#CC1(NC(=O)C(=O)c2c(C)c(C(=O)Nc3ccnc(Br)c3F)n(C)c2C)CC(F)(F)C1` [Compound 84, N-(2-bromo-3-fluoro-4-pyridyl)-4-[2-[(1-ethynyl-3,3-difluoro-cyclobutyl)amino]-2-oxo-acetyl]-1,3,5-trimethyl-pyrrole-2-carboxamide], the figure is 1 to 10 nM; as for `C#CCNC(=O)C(=O)c1c(Cl)c(C(=O)Nc2ccc(F)c(C#N)c2)n(C)c1Br` [Compound 16, 5-bromo-3-chloro-N-(3-cyano-4-fluoro-phenyl)-1-methyl-4-[2-oxo-2-(prop-2-ynylamino)acetyl]pyrrole-2-carboxamide], 10 to 100 nM; as for `C#C[C@@H](CCO)NC(=O)C(=O)c1c(C)c(C(=O)Nc2ccc(F)c(C#N)c2)n(C)c1C` [Compound 61a, N-(3-cyano-4-fluoro-phenyl)-1,3,5-trimethyl-4-[2-oxo-2-[[(1R)-1-(2-hydroxyethyl)prop-2-ynyl]amino]acetyl]pyrrole-2-carboxamide], 1 to 10 nM. Regarding `C#CC1(NC(=O)C(=O)c2c(Cl)c(C(=O)Nc3ccc(F)c(C#N)c3)n(C)c2C)CC(F)(F)C1` [Compound 52, 3-chloro-N-(3-cyano-4-fluoro-phenyl)-4-[2-[(1-ethynyl-3,3-difluoro-cyclobutyl)amino]-2-oxo-acetyl]-1,5-dimethyl-pyrrole-2-carboxamide], the concentration giving a half-maximal response (EC50) is less than 1 nM. Under `C#CCNC(=O)C(=O)c1cc(C(=O)Nc2ccc(F)c(C#N)c2)n(C)c1` [Compound 3, N-(3-cyano-4-fluoro-phenyl)-1-methyl-4-[2-oxo-2-(prop-2-ynylamino)acetyl]pyrrole-2-carboxamide] stands more than 1000 nM. Under `Cc1c(C(=O)C(=O)NC(C)(C)c2cncnc2)c(C)n(C)c1C(=O)Nc1ccc(F)c(C#N)c1` [Compound 144, N-(3-cyano-4-fluoro-phenyl)-1,3,5-trimethyl-4-[2-[(1-methyl-1-pyrimidin-5-yl-ethyl)amino]-2-oxo-acetyl]pyrrole-2-carboxamide] stands 1 to 10 nM; under `C#CCNC(=O)C(=O)c1c(F)c(C(=O)Nc2ccc(F)c(C#N)c2)n(C)c1Br` [Compound 20, 5-bromo-N-(3-cyano-4-fluoro-phenyl)-3-fluoro-1-methyl-4-[2-oxo-2-(prop-2-ynylamino)acetyl]pyrrole-2-carboxamide], 10 to 100 nM; under `C=C[C@@](C)(CO)NC(=O)C(=O)c1c(C)c(C(=O)Nc2ccc(F)c(C#N)c2)n(C)c1C` [Compound 72b, N-(3-cyano-4-fluoro-phenyl)-1,3,5-trimethyl-4-[2-oxo-2-[[(1S)-1-(hydroxymethyl)-1-methyl-allyl]amino]acetyl]pyrrole-2-carboxamide], 1 to 10 nM. Under `C=CCNC(=O)C(=O)c1c(C)c(C(=O)Nc2ccc(F)c(C(F)(F)F)c2)n(C)c1C` [Compound 2, 4-[2-(allylamino)-2-oxo-acetyl]-N-[4-fluoro-3-(trifluoromethyl)phenyl]-1,3,5-trimethyl-pyrrole-2-carboxamide] stands 1 to 10 nM; under `Cc1c(C(=O)C(=O)NC(C)(C)c2cccnc2)c(C)n(C)c1C(=O)Nc1ccc(F)c(C#N)c1` [Compound 92, N-(3-cyano-4-fluoro-phenyl)-1,3,5-trimethyl-4-[2-[[1-methyl-1-(3-pyridyl)ethyl]amino]-2-oxo-acetyl]pyrrole-2-carboxamide], 1 to 10 nM; under `C#C[C@H](NC(=O)C(=O)c1c(C)c(C(=O)Nc2ccc(F)c(C(F)(F)F)c2)n(C)c1C)C1CC1` [Compound 38a, N-[4-fluoro-3-(trifluoromethyl)phenyl]-1,3,5-trimethyl-4-[2-oxo-2-[[(1R)-1-cyclopropylprop-2-ynyl]amino]acetyl]pyrrole-2-carboxamide], less than 1 nM. `C=CC1(NC(=O)C(=O)c2c(C)c(C(=O)Nc3ccc(F)c(C#N)c3)n(C)c2C)CC(F)(F)C1` [Compound 53, N-(3-cyano-4-fluoro-phenyl)-4-[2-[(3,3-difluoro-1-vinyl-cyclobutyl)amino]-2-oxo-acetyl]-1,3,5-trimethyl-pyrrole-2-carboxamide]: the EC50 was 1 to 10 nM. As for `Cc1c(C(=O)C(=O)NC2(c3c[nH]nn3)CC(F)(F)C2)c(C)n(C)c1C(=O)Nc1ccc(F)c(C#N)c1` [Compound 19, N-(3-cyano-4-fluoro-phenyl)-4-[2-[[3,3-difluoro-1-(1H-triazol-4-yl)cyclobutyl]amino]-2 oxo-acetyl]-1,3,5-trimethyl-pyrrole-2-carboxamide], the figure is less than 1 nM; as for `C#CCNC(=O)C(=O)c1cn(C)c(C(=O)Nc2ccc(F)c(C#N)c2)c1C` [Compound 8, N-(3-cyano-4-fluoro-phenyl)-1,3-dimethyl-4-[2-oxo-2-(prop-2-ynylamino)acetyl]pyrrole-2-carboxamide], 10 to 100 nM. As for `Cc1c(C(=O)C(=O)NC(C)(C)c2ccncn2)c(C)n(C)c1C(=O)Nc1ccc(F)c(C#N)c1` [Compound 152, N-(3-cyano-4-fluoro-phenyl)-1,3,5-trimethyl-4-[2-[(1-methyl-1-pyrimidin-4-yl-ethyl)amino]-2-oxo-acetyl]pyrrole-2-carboxamide], the figure is 1 to 10 nM; as for `C=CC1(NC(=O)C(=O)c2c(C)c(C(=O)Nc3ccc(F)c(C#N)c3)n(C)c2Cl)COC1` [Compound 41, 5-chloro-N-(3-cyano-4-fluoro-phenyl)-1,3-dimethyl-4-[2-oxo-2-[(3-vinyloxetan-3-yl)amino]acetyl]pyrrole-2-carboxamide], 1 to 10 nM; as for `C=CCNC(=O)C(=O)c1c(F)c(C(=O)Nc2ccc(F)c(C#N)c2)n(C)c1C` [Compound 18, 4-[2-(allylamino)-2-oxo-acetyl]-N-(3-cyano-4-fluoro-phenyl)-3-fluoro-1,5-dimethyl-pyrrole-2-carboxamide], 1 to 10 nM. Under `Cc1c(C(=O)C(=O)NC(C)(C)c2ccncc2)c(C)n(C)c1C(=O)Nc1ccc(F)c(C(F)(F)F)c1` [Compound 101, N-[4-fluoro-3-(trifluoromethyl)phenyl]-1,3,5-trimethyl-4-[2-[[1-methyl-1-(4-pyridyl)ethyl]amino]-2-oxo-acetyl]pyrrole-2-carboxamide] stands 1 to 10 nM.

Regarding `C#CC1(NC(=O)C(=O)c2c(C)c(C(=O)Nc3ccc(F)c(C#N)c3)n(C)c2C)CCS(=O)(=O)CC1` [Compound 108, N-(3-cyano-4-fluoro-phenyl)-4-[2-[(4-ethynyl-1,1-dioxo-thian-4-y1)amino]-2-oxo-acetyl]-1,3,5-trimethyl-pyrrole-2-carboxamide], the EC50 fell in the range of 1 to 10 nM.
